Consider 16 molecules from patent US20120095022A1, “DERIVATIVES OF 10-AMINO-1,2,3,4-TETRAHYDROPYRIDO[2,1-A]ISOINDOL-6(10BH)-ONES, METHOD FOR PREPARATION THEREOF AND THERAPEUTIC USES THEREOF” (UNIVERSITE D'ORLEANS, priority 2009, published 2012).

pIC50: −log10 of the molar value.

The test system of series [1] is Caco (colon). The series is described as follows: Cytotoxicity on human cells, automated nuclei counting: Caco. The class given is cell-based. To be noted: exposed 24 h to 48 h, 0.1 to 25 μM. The protocol:
(§1) Cytotoxicity: This method is based on an automated imaging analysis. 4.10^3 cells were cultivated on 96-well plates and left for 24 hours so as to bind, to spread and proliferate.
(§2) All the cell lines were cultivated in a DMEM or RPMI (Invitrogen) medium. All these media were completed with antibiotics (penicillin-streptomycin) (Lonza) and 10% by volume of fetal calf serum (Invitrogen). The cells were cultivated at 37° C. with 5% of CO2. The treatments with the molecules to be tested were carried out with increasing concentrations. The control experiments were also carried out by using suitable dilutions of DMSO (maximum 1% DMSO).

Series [2] concerns the target DYRK1A (Homo sapiens, UniProt Q13627). The series is described as follows: DYRK1A kinase inhibition (Woodtide substrate).
Series [3] has as its system Huh7 (liver). The series is described as follows: Cytotoxicity on human cells, automated nuclei counting: Huh7. The class given is cell-based. As to conditions: Huh-7, exposed 24 h to 48 h, 0.1 to 25 μM. The protocol:
as §1, §2

Series [4] addresses GSK-3αβ. Kind of series: GSK-3 kinase inhibition (GS-1 substrate). To be noted: read-out: IC50 μM Kinases GSK3, buffer A, 30° C., 15 μM ATP.
For series [5], the system named is NCI (lung). The series is described as follows: Cytotoxicity on human cells, automated nuclei counting: NCI. The class given is cell-based. To be noted: exposed 24 h to 48 h, 0.1 to 25 μM. As for the experimental part: as §1, §2
For series [6], the system named is PC3 (prostate). The series is described as follows: Cytotoxicity on human cells, automated nuclei counting: PC3. The format is cell-based. As to conditions: PC-3, exposed 24 h to 48 h, 0.1 to 25 μM. The protocol: as §1, §2
For series [7], the system named is HCT 116 (colon). The series is described as follows: Cytotoxicity on human cells, automated nuclei counting: HCT 116. The class given is cell-based. As to conditions: HCT 116 cells, exposed 24 h to 48 h, 0.1 to 25 μM. The protocol:
as §1, §2

Series [8] deals with fibroblast. Kind of series: Cytotoxicity on human cells, automated nuclei counting: fibroblast. The format is cell-based. To be noted: exposed 24 h to 48 h, 0.1 to 25 μM. The protocol:
as §1, §2

The test system of series [9] is MDA-MB 231 (breast). The series is described as follows: Cytotoxicity on human cells, automated nuclei counting: MDA-MB 231. As to conditions: MDA-MB 231 cells, exposed 24 h to 48 h, 0.1 to 25 μM. The class given is cell-based. As for the experimental part:
as §1, §2

The target in series [10] is T1, CDK5/D25 (Homo sapiens, UniProt Q00535).
T1 construct: made in house
T1 sequence (Q00535 whole entry): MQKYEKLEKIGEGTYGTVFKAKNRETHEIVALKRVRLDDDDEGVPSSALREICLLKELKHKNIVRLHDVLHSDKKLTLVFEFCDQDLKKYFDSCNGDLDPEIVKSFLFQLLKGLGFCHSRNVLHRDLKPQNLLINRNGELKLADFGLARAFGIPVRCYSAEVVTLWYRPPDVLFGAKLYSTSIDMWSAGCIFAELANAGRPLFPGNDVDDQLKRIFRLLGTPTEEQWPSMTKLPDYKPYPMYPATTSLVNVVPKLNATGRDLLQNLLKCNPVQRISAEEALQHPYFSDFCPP
T1 sequence (Q15078 99-307 partner limits assumed): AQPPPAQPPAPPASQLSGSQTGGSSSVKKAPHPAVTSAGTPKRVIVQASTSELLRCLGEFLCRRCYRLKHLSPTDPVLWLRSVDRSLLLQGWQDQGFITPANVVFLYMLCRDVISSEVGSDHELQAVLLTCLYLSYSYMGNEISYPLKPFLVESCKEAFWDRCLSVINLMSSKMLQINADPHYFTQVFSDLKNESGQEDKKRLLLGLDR
The series is described as follows: CDK5 kinase inhibition (33P-ATP, histone H1). To be noted: buffer C, 30° C., 15 μM ATP, read-out: IC50 μM Kinases CDK5. The format is biochemical. The protocol:
The protein kinase inhibition activities of the compounds of the invention are tested according to the following general procedure:
Buffer C: 60 mM β-glycerophosphate, 15 mM p-nitrophenyl-phosphate, 25 mM Mops (pH 7.2), 5 mM EGTA, 15 mM mgCl2, 1 mM DTT, 1 mM sodium vanadate and 1 mM phenylphosphate.
The controls were made with suitable dilutions of DMSO.
ATP (3.000 Ci/mmol.; 10 mCi/mL) in a final volume of 30 μL. After 30 mins of incubation at 30° C., 25 μL of supernatant aliquots were deposited on phosphocellulose Whatman P81 paper pieces of 2.5×3 cm, and after 20 seconds, the filters were washed five times (for at least 5 minutes each time) in a solution of 10 mL of phosphoric acid/1 litre of water. The wet filters were counted in the presence of 1 mL of scintillation fluid ACS (Amersham).

Usually IC50 stands for the concentration needed to halve the response being measured. The pIC50 is the IC50 on a negative log10 scale, so that one unit is a factor of ten. Lower therefore signals a high IC50. Regarding `O=C1c2cccc(NC(=S)Nc3ccc(Br)cn3)c2C2CCCCN12` (stereo not shown) [Compound 66, 1-(5-Bromopyridin-2-yl)-3-(6-oxo-1,2,3,4,6,10b-hexahydropyrido[2,1-a]isoindol-10-yl)thiourea], the IC50 in [1] is 2 µM; in series [3] it was above 25 µM; in [4], 2.1 µM; in [5] it was 25 µM; in [6], above 25 µM; in [7], 3 µM. In addition, the IC50 in series [8] came out at 4 µM; in series [9], 2 µM; in [10] it was 8.7 µM. Moreover, the pIC50 in series [2] was below 4.00.
Consider `COC1CCN2C(=O)c3cccc(NC(=O)Nc4ccccn4)c3C2C1` (stereo not shown) [Compound 53, 1-(2-Methoxy-6-oxo-1,2,3,4,6,10b-hexahydropyrido[2,1-a]isoindol-10-yl)-3-(pyridin-2-yl)urea], for which the IC50 in [1] came to 2.5 µM; in series [3], 0.7 µM; in [4], 0.081 µM; in series [5] it was 4 µM; in series [6], 2 µM; in [7], 1 µM. The IC50 in [8] amounted to 3 µM; in series [9], 2 µM; in series [10] it was 0.55 µM. The same molecule showed a negative logarithm of the IC50 (pIC50) in [2] below 5.00.
Broadly, the melting point is the temperature of the solid-liquid transition. For the molecule `O=C(Nc1ccncn1)Nc1cccc2c1C1CCCCN1C2=O` (stereo not shown) [Compound 32, 1-(6-Oxo-1,2,3,4,6,10b-hexahydropyrido[2,1-a]isoindol-10-yl)-3-(pyrimidin-4-yl)urea], the melting point was 218 °C. The molecule further showed a pIC50 in [2] of 4.15. In addition, in series [4], the IC50 came out at 0.36 µM. The IC50 in series [10] is 1.5 µM.
`COc1cc(NC(=O)Nc2cccc3c2C2CC4(CCN2C3=O)SCCS4)nc2ccccc12` (stereo not shown) [Compound 49]: the IC50 amounted to 15 µM in series [1]; 5 µM in [3]; 4 µM in series [4]; 10 µM in [5]; 15 µM in series [6]; 10 µM in series [7]. Besides, the IC50 in [8] was 25 µM; in series [9], 20 µM; in series [10] it was above 10 µM. In [2], this molecule had a pIC50 below 5.00.
`Cn1ccc(NC(=O)Nc2cccc3c2C2CC4(CCN2C3=O)SCCS4)n1` (stereo not shown) [Compound 40, 1-(6′-Oxo-3′,4′,6′,10b′-tetrahydro-1′H-spiro[[1,3]dithiolane-2,2′-pyrido[2,1-a]isoindole]-10′-yl)-3-(1-Methyl-1H-pyrazol-3-yl)urea] showed a melting point of 135 °C. The pIC50 in series [2] was below 5.00. For the same molecule, in series [4], the IC50 came to 1.9 µM. Moreover, the IC50 in [10] is at least 10 µM.
The molecule `CC(C)(C)OC(=O)n1ccc(NC(=O)Nc2cccc3c2C2CCCCN2C3=O)n1` (stereo not shown) [Compound 118] registered a melting point of 136 °C. This molecule also gave a negative-log IC50 (pIC50) in [2] below 5.00. In series [4], the IC50 was determined as 0.4 µM.
Turning to `O=C1CCN2C(=O)c3cccc(NC(=O)Nc4cc(O)c5ccccc5n4)c3C2C1` (stereo not shown) [Compound 103, 1-(2,6-Dioxo-1,2,3,4,6,10b-hexahydropyrido[2,1-a]isoindol-10-yl)-3-(4-hydroxyquinolin-2-yl)urea], the melting point is above 260 °C. The molecule further gave a negative-log IC50 (pIC50) in series [2] of at most 5.00. In addition, in series [4], the IC50 was found to be 1.3 µM. In [10], the IC50 was above 10 µM.
Taken in the same sequence, the figures for `O=C(Nc1cc(O)c2ccccc2n1)Nc1cccc2c1C1CC(O)CCN1C2=O` (stereo not shown) [Compound 110, 1-(2-Hydroxy-6-oxo-1,2,3,4,6,10b-hexahydropyrido[2,1-a]isoindol-10-yl)-3-(4-hydroxyquinolin-2-yl)urea] were above 260 °C, at most 5.00, 2.5 µM and above 10 µM.
As to `O=C1c2cccc(NC(=S)Nc3ccccn3)c2C2CCCCN12` (stereo not shown) [Compound 62, 1-(6-Oxo-1,2,3,4,6,10b-hexahydropyrido[2,1-a]isoindol-10-yl)-3-(pyridin-2-yl)thiourea], the melting point was 195 °C. Moreover, in series [1], the IC50 was found to be 20 µM. Also, the pIC50 in series [2] was 4.33. Further, the IC50 in [3] was above 25 µM. Further, in [4], the IC50 is 2.3 µM. The molecule also displayed an IC50 in series [5] above 25 µM. Further, the IC50 in series [6] came out at 20 µM. Further, the half-inhibitory concentration (IC50) in series [7] came to 8 µM. In addition, in series [8], the IC50 is above 25 µM. In series [9], this molecule displayed an IC50 of 25 µM.
`COC1CCN2C(=O)c3cccc(NC(=O)Nc4ccn(C)n4)c3C2C1` (stereo not shown) [Compound 60, 1-(2-methoxy-6-oxo-1,2,3,4,6,10b-hexahydropyrido[2,1-a]isoindol-10-yl)-3-(1-methyl-1H-pyrazol-3-yl)urea]: the IC50 in series [1] was 15 µM; in [3], 2 µM; in [5], 2 µM; in series [6] it was 7 µM; in [7], 4 µM; in series [8], 15 µM. In addition, the IC50 amounted to 10 µM in series [9] and 2.3 µM in [10]. For the same molecule, in series [2], the pIC50 is below 5.00.
Turning to `Cc1cccc(NC(=O)Nc2cccc3c2C2CC(O)CCN2C3=O)n1` (stereo not shown) [Compound 108, 1-(2-Hydroxy-6-oxo-1,2,3,4,6,10b-hexahydropyrido[2,1-a]isoindol-10-yl)-3-(6-methylpyridin-2-yl)urea], the melting point was in the range of 240 to 242 °C. The molecule also registered an IC50 in series [1] of 15 µM. The IC50 in series [3] came out at 3 µM. In addition, the IC50 in series [5] was found to be 10 µM. The same molecule came in with an IC50 in series [6] of 2 µM. In series [7], the IC50 came out at 3 µM. The IC50 in series [8] came out at 10 µM. In series [9], the IC50 was 8 µM. The IC50 in [10] is 1 µM.
Consider `O=C(Nc1cc[nH]n1)Nc1cccc2c1C1CCCCN1C2=O` (stereo not shown) [Compound 119, 1-(6-Oxo-1,2,3,4,6,10b-hexahydro-pyrido[2,1-a]isoindol-10-yl)-3-(1H-pyrazol-3-yl)-urea], for which the melting point was found to be 185 °C. Also, the pIC50 in [2] is below 5.00. In addition, in series [4], the IC50 turned out to be 0.47 µM.
Turning to `COC1CCN2C(=O)c3cccc(NC(=O)Nc4ncccc4C)c3C2C1` (stereo not shown) [Compound 57, 1-(2-Methoxy-6-oxo-1,2,3,4,6,10b-hexahydropyrido[2,1-a]isoindol-10-yl)-3-(3-methylpyridin-2-yl)urea], the IC50 in series [1] was 2 µM; in series [3], 1.2 µM; in series [5], 4 µM; in [6] it was 1.2 µM; in series [7], 1 µM; in series [8], 3 µM. For the same molecule, the IC50 came out at 2.2 µM in series [9] and 1.1 µM in series [10]. The pIC50 in series [2] was below 5.00.
The molecule `O=C(Nc1cccc2c1C1CCCCN1C2=O)Nc1nc(Cl)c(Cl)c(Cl)c1Cl` (stereo not shown) [Compound 33, 1-(6-oxo-1,2,3,4,6,10b-hexahydropyrido[2,1-a]isoindol-10-yl)-3-(perchloro-pyridin-2-yl)urea] had a melting point of 246 °C. Besides, the IC50 in series [1] was 1.5 µM. The same molecule gave a pIC50 in [2] below 4.00. Moreover, half-maximal inhibition in [3] (IC50) required 0.25 µM. In addition, the IC50 in [4] was 4.3 µM. In [5], inhibition was half-maximal at 0.8 µM (IC50). The molecule further returned a half-maximal inhibitory concentration (IC50) in series [6] of 1 µM. In series [7], this molecule showed an IC50 of 0.5 µM. This molecule also had an IC50 in series [8] of 0.5 µM. The molecule further displayed an IC50 in series [9] of 0.5 µM.
With `O=C(Nc1ccccn1)Nc1cccc2c1C1C[C@@H](O)CCN1C2=O` (stereo partly drawn) [Compound 104, 1-((2S)-2-Hydroxy-6-oxo-1,2,3,4,6,10b-hexahydropyrido[2,1-a]iso-indol-10-yl)-3-(pyridin-2-yl)urea], the melting point amounted to 220 °C. In [1], this molecule gave an IC50 of 7 µM. Moreover, in series [3], half-maximal inhibition (IC50) required 2 µM. In series [5], this molecule registered an IC50 of 3 µM. In addition, 3 µM corresponded to half-maximal inhibition in [6] (IC50). In series [7], this molecule showed a half-inhibitory concentration (IC50) of 1 µM. This molecule showed an IC50 in [8] of 2 µM. Inhibition in [9] was half-maximal at 3 µM (IC50). In series [10], the 50% inhibitory concentration (IC50) is 2.1 µM.
In the case of `Cn1ccc(NC(=O)Nc2cccc3c2C2CCCCN2C3=O)n1` (stereo not shown) [Compound 41, 1-(1-Methyl-1H-pyrazol-3-yl)-3-(6-oxo-1,2,3,4,6,10b-hexahydro-pyrido[2,1-a]isoindol-10-yl)-urea], the melting point was found to be 233 °C. In series [2], this molecule gave a pIC50 below 5.00. For the same molecule, the half-inhibitory concentration (IC50) in [4] was 0.31 µM. Besides, the IC50 in series [10] was 0.51 µM.
